Like-named read-outs stand apart in the source and are kept apart here.
Assays:
cNOS = test: Activation of constitutive NOS by nucleotide ligands; type: biochemical
Procedure: The effect of 2′AMP on the optical spectra of reductase cofactors in eNOS was also examined for eNOS as isolated and reduced with 1 mM NADPH. eNOS only, eNOS NADPH, eNOS NADPH with 2′AMP, eNOS NADPH with 2′AMP and CAM, and NADPH 2′AMP were compared.
(§1) Nitric Oxide production was assayed using the Griess assay as adapted for microtiter plates (Gross, S. S. (1996) Methods Enzymol. 268:159-68); calcium dependence was measured using EDTA as a Ca+2 buffer system. […] NADPH-dependent cytochrome c reduction was measured spectrophotometrically as described by McMillan et al (McMillan, K., et al., (1992) Proc Nat. Acad. Sci. U.S.A. 89, 11141-11145), adapted to 96-well plate microtiter plates. In each well, the […] reaction mixture contained 50 mM Na+ TRIS buffer, pH 7.5, 50 uM EDTA, 50 uM NADPH, 50 uM horse heart cytochrome c, and ˜10 nM of nNOS. Cytochrome c reduction was monitored at 550 nm (ε=2.1×104/M). In Cam/Ca+2 dependence studies, 0.75 uM CaCl2 and […] calmodulin were added to reaction mixtures. Assays were performed on a SpectraMAX plate reader (Molecular Devices).

nNOS = test: Nitrite production (Griess) of wild type and mutant nNOS enzymes; type: biochemical, rat; settings: activity of the enzyme preparation, based on heme content
Procedure: Expression and purification of wild type and mutant bovine eNOS and rat nNOS. Expression and purification of bovine eNOS and rat nNOS were performed using procedures similar to those previously described (Martasek, P.,et al., (1996) Biochem Biophys Res Commun. 219(2); 359-65). Transformed cells were broken with a French press, and after centrifugation to remove cell debris the supernatant was loaded on a 2′5′ADP affinity column, washed, and eluted with 2′AMP as described (id). High purity preparations can be obtained with a size exclusion step; we used a Superose 6 HR 10/30 column (Pharmacia Biotech AB, Uppsala, Sweden), flow rate 0.4 mL/min, buffer composition −50 mM Tris-HCl, pH 7.5, 0.1 mM EDTA, 1 mM-mercaptoethanol, 100 mM NaCl, 10% glycerol (vol/vol). During the purification procedure BH4 or L-arginine were added after elution from the affinity column. Enzyme sample concentrations were determined on the basis of heme concentration, except in heme free preparations, where the flavin concentration was measured. UV-visible absorbance spectra were recorded on an Aminco DW-2000 spectrophotometer.
as §1

[1] = comparison of nucleotide ligands

Compound	function as NOS activator (cNOS; [1])	Nitrite production (nNOS)	also measured
Nc1ncnc2c1ncn2[C@@H]1O[C@H](COP(=O)(O)O)[C@@H](OP(=O)(O)O)[C@H]1O [3′5′ ADP]	only a very weak activator		
Nc1ncnc2c1ncn2[C@@H]1O[C@@H]2COP(=O)(O)O[C@H]2[C@H]1O [Cyclic AMP]			function as NOS activator (cNOS): did not function as activators
Nc1nc2c(ncn2[C@@H]2O[C@H](COP(=O)(O)OP(=O)(O)O)[C@@H](O)[C@H]2O)c(=O)[nH]1 [GDP]	did not function as activators		
Nc1nc2c(ncn2[C@@H]2O[C@H](COP(=O)(O)OP(=O)(O)OP(=O)(O)O)[C@@H](O)[C@H]2O)c(=O)[nH]1 [GTP]	did not function as activators		
Nc1nc2c(ncn2[C@@H]2O[C@@H]3COP(=O)(O)O[C@H]3[C@H]2O)c(=O)[nH]1 [cyclic GMP]	did not function as activators		
G1074D mutant: rat nNOS small insertion mutant, Gly 1074 replaced by Asp		179.8 nmoles/min/mg NOS	
G1074Y mutant: rat nNOS small insertion mutant, Gly 1074 replaced by Tyr		186.2 nmoles/min/mg NOS	
wild-type nNOS: wild type rat neuronal nitric oxide synthase expressed in E. coli		292.2 nmoles/min/mg NOS	
